Experimental findings from article PMC10216731 (2023) are described below.

The subject of assay [1] is aptamer for AMP (Apt) (DNA, aptamer) GCGGGCGGTTGTATAGCGG
Nature of the assay: fluorescence recovery by release of TPE-Am. Particulars: 99% PBS (PBS:DMSO), pH 7.4, 25 °C, aptamer 500 nM.

For assay [2] the test system is unchanged. The assay is described as follows: fluorescence quenching of TPE-Am, lg[(F0-F)/F] against lg[Q] plot. Particulars: Na+, K+ from 10 mM PBS (Na2HPO4, KH2PO4, NaCl, KCl); individual cation concentrations not given; 305 K; PBS:DMSO 99% PBS; TPE-Am aggregated; also measured at 287 and 318 K; apparent.
Where [3] appears, read: TPE-Am displacement, highest tested 100 nM.

With `CC1(C)S[C@@H]2[C@H](NC(=O)[C@H](N)c3ccccc3)C(=O)N2[C@H]1C(=O)O`, in assay [1] (TPE-Am 1 μM displaced, 10 nM AMP), the binding entry is “yes”.

On to `CC[C@H]1OC(=O)[C@H](C)[C@@H](O[C@H]2C[C@@](C)(OC)[C@@H](O)[C@H](C)O2)[C@H](C)[C@@H](O[C@@H]2O[C@H](C)C[C@H](N(C)C)[C@H]2O)[C@](C)(O)C[C@@H](C)/C(=N\OCOCCOC)[C@H](C)[C@@H](O)[C@]1(C)O`, for which the binding entry in assay [1] (setting [3]) is “no”.

As to `CN(C)[C@@H]1C(=O)C(C(N)=O)=C(O)[C@@]2(O)C(=O)C3=C(O)c4c(O)cccc4[C@@](C)(O)[C@H]3C[C@@H]12`, in assay [1] (setting [3]), the binding result is “no”.

As to `Nc1ccc(C(=C(c2ccccc2)c2ccccc2)c2ccccc2)cc1`, the Kb in assay [2] came out at 626000 L/mol.

As to `O=C(N[C@H](CO)[C@H](O)c1ccc([N+](=O)[O-])cc1)C(Cl)Cl`, the binding entry in assay [1] (setting [3]) is listed as “no”.

Consider `O=[N+]([O-])N=C1NCCN1Cc1ccc(Cl)nc1`, for which the binding entry in assay [1] (setting [3]) was “no”.
